# Columns and labels:
# [1] = biological target: T1, Protein kinase C theta type (Homo sapiens, UniProt Q04759); test: Inhibition of full-length recombinant PKC theta (unknown origin) using ERMRPRKRQGSVRRRV as substrate after 60 mins by scintillation counting analysis in presence of [gamma-33P]ATP
# [2] = biological target: Protein kinase C delta type (Homo sapiens, UniProt Q05655); test: Inhibition of PKC delta (unknown origin) using ERMRPRKRQGSVRRRV as substrate after 15 mins by spectrophotometry in presence of ATP
# Protein kinase C delta type, sequence (Q05655 whole entry): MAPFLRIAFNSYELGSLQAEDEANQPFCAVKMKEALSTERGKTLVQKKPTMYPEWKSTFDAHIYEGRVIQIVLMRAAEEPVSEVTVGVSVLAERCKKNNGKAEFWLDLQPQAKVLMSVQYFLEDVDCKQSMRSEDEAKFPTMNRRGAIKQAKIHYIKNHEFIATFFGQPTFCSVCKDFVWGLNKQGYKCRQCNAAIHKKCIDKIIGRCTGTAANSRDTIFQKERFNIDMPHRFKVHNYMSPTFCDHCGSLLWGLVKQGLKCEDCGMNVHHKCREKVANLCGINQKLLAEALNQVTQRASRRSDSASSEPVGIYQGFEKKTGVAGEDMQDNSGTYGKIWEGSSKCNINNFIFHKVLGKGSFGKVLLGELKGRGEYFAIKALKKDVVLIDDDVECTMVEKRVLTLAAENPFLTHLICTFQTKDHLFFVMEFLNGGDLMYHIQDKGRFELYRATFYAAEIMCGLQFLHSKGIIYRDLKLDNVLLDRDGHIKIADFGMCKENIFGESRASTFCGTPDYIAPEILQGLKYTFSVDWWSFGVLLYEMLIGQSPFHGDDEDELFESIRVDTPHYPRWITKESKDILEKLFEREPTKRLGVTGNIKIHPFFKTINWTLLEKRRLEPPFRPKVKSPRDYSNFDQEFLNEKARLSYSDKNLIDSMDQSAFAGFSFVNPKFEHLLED
# [3] = biological target: T1, Protein kinase C theta type; test: Inhibition of PKC-theta in human PBMC cells assessed as inhibition of IL-2 after 24 hrs by bead-based FLISA assay; assay type: cell-based
# [4] = biological target: Protein kinase C alpha type (Homo sapiens, UniProt P17252); test: Inhibition of PKC alpha (unknown origin) using RRRRRKGSFKRKA as substrate after 15 mins by spectrophotometry in presence of ATP
# [5] = Oral bioavailability in rat at 10 mg/kg; assay type: ADME, organism-based; details: in vivo
# Blood = test: Inhibition of PKC theta in human whole blood assessed as IL-2 level after 1 hr by ELISA; assay type: functional, tissue-based
# [6] = Clearance in rat at 3 mg/kg, iv and 10 mg/kg, po; assay type: ADME, organism-based; details: in vivo
# [7] = Half life in rat at 3 mg/kg, iv and 10 mg/kg, po; assay type: ADME, organism-based; details: in vivo
# T1 sequence (Q04759 whole entry): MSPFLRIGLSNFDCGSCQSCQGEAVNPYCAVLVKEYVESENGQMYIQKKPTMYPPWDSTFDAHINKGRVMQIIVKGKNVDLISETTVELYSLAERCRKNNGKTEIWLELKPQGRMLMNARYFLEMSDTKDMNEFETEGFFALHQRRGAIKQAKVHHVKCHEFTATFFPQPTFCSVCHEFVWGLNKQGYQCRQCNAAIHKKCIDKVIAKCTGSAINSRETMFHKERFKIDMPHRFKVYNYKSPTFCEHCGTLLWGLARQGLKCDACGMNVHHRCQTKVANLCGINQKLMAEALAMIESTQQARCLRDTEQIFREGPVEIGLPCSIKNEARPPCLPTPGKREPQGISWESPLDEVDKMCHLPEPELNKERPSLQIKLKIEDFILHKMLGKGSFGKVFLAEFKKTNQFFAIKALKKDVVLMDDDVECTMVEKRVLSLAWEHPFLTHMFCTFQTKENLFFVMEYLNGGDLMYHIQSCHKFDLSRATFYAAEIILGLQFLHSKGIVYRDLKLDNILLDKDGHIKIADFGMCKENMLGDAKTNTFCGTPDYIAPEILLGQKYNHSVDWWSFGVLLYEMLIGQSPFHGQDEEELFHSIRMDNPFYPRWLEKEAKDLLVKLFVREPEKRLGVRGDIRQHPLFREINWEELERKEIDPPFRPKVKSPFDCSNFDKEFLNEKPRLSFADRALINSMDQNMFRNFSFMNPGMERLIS
Ki [1] [nM],Ki [2] [nM],IC50 [3] [nM],Ki [4] [nM],bioavailability [5] [%],IC50 (Blood) [nM],clearance [6] [mL/min/kg],half-life [7] [h],Compound
5,130,,,,,,,CC(C)C[C@H]1CN(c2ccc(F)c(-c3n[nH]c4ncccc34)n2)C[C@@H](C)N1
21,547,170,1240,,,,,CC(C)[C@@](C)(O)[C@@H]1CN(c2ccc(Cl)c(-c3n[nH]c4ncccc34)n2)CCN1
0.1,18,2,198,30,80,9.5,1.7,CC(C)[C@@](C)(O)[C@@H]1CN(c2nc(-c3n[nH]c4ncccc34)c(F)cc2F)CCN1
,,,> 1250,,,,,CC(C)[C@@](C)(O)[C@@H]1CN(c2nc(-c3n[nH]c4ncccc34)c(F)cc2C#N)CCN1
,,,428,,,,,Nc1ncccc1C(=O)c1cccc(N2CCCNCC2)n1
,57,,549,36,200,39,2.6,CC(C)[C@@](C)(O)[C@@H]1CN(c2ccc(F)c(-c3n[nH]c4ncccc34)n2)CCN1
,> 1250,,,,,,,CC(C)[C@](C)(O)[C@H]1CN(c2ccc(F)c(-c3n[nH]c4ncccc34)n2)CCN1
,792,,,,,,,CC(C)C[C@@H]1CN(c2ccc(F)c(-c3n[nH]c4ncccc34)n2)CCN1

Compound,Ki [1] [nM],Ki [2] [nM],IC50 [3] [nM],Ki [4] [nM],bioavailability [5] [%],IC50 (Blood) [nM],clearance [6] [mL/min/kg],half-life [7] [h]
Fc1ccc(N2CCNCC2)nc1-c1n[nH]c2ncccc12,60,722,,> 1250,,,,
